Assay results from patent US5948814A, “Genistein for the treatment of cystic fibrosis” (priority 1998, dated 1999).
Where two headings read alike, the source gives them in different places.

Legend:
ΔF508-CFTR = ΔF508-CFTR (Homo sapiens, UniProt P13569, DEL508-508); assay: Forskolin-dependent I- efflux, NIH/3T3-ΔF508 cells
Procedure: (§1) FIG. 1 is a graph representing the dose-responses relationship for forskolin-dependent I^- efflux. Peak rates of I^- efflux in the presence (closed symbols) or absence (open symbols) of 50 μM genistein were obtained with NIH/3T3-cystic fibrosis transmembrane conductance regulator (NIH/3T3-CFTR) (circles) and NTH/3T3-Δphenylalanine 508 (ΔF508) cells (triangles). NIH/3T3-CFTR cells are cultured at 37° C. NIH/3T3-Δ508 cells are cultured at 27° C. for 3 days prior to assay. Data are mean values±SE (n>5). Lines were fit by nonlinear least squares.
FIG. 2 is a bar graph showing the effects of stimulation of ΔF508-CFTR by forskolin and genistein. Peak rates of I^- efflux were measured with NIH/3T3-ΔF508cells that were cultured at 37° C. (open bars) or at 27° C. for 3 days prior to assay (filled bars). I^- efflux was assayed without added agonist as a control and with 1 μM forskolin (fsk), 50 μM genistein (gen), or 1 μM forskolin plus 50 μM genistein (fsk+gen). Error bars are SE for n>7.
(§2) Cell culture: NIH/3T3-CFTR, NIH/3T3-ΔF508, and NIH/3T3 mock cells (generous gifts from Dr. Richard Mulligan of Children's Hospital and Medical Center, Harvard Medical School) were grown as described [Bradbury et al., 1992] at 37° C. and 5% CO2 in Dulbecco's modified Eagle's medium-H21 supplemented with 10% new-born calf serum, 4 mM glutamine, 25 mM glucose, 100 μg/ml penicillin, 100 μg/ml streptomycin, and 50 μg/ml gentamicin. Cells were maintained in T75 flasks, passaged at 90-95% confluency, and split one to four. For measurements of I^- efflux and in vivo phosphorylation, cells were seeded onto 35-mm dishes at […]. For patch-clamp experiments, cells were grown on coverglass chips in 35-mm culture dishes. Media were replaced 24 hours after plating and thereafter every 48 hours. In all cases, media were changed on the day before I^- efflux studies, NIH/3T3-ΔF508 cells were transferred to 27° C. three days before use, and 1 day prior to study, media were supplemented with 5 mM butyrate. For patch-clamp studies, where a constant level of functional ΔF508-CFTR was not essential, NIH/3T3-ΔF508 cells were cultured at 27° C. for 2-6 days before use. Calu-3 cells were grown and maintained as described by Hunter [1995].
(§3) I^- efflux: I^- efflux was measured as described previously [Reenstra et al., 1996]. Briefly, cells were incubated for 30 minutes with 37° C. I^- efflux buffer [(in mM) 141 NaCl, 4 KCl, 1 KH2 PO4, 0.9 MgCl2, 1.7 CaCl2. 10 N-2hydroxyethylpiperazine-N'-2-ethanesulfonic acid (HEPES), 25 glucose pH 7.4] containing 5 μCi/ml carrier-free ^125 I^- (sodium salt). Extracellular ^125 I^- was removed by washing four times with efflux buffer, and the rate of loss of intracellular ^125 I^- was determined by replacing the bathing solution with 37° C. efflux buffer every 60 seconds for 12 minutes. Time-dependent rates of ^125 I^- efflux are calculated from R=ln(^125 I^-t1 /^125 I^-t2)/(t1-t2), where ^125 I^-t is the intracellular ^125 I^- at time t and t1 and t2 are successive time points. Dose-response curves were obtained from peak rates of 125I^- efflux by nonlinear least squares fitting to R=[Ro +Rmx ·([fsk]/K1/2)]/[1+([fsk]/K1/2)], where Ro and Rmx are the rates of ^125 I efflux at zero and infinite concentration of forskolin (fsk), and K1/2 is the concentration of agonist that gives a half-maximal change.
To investigate effects of genistein on CFTR activity, the rates of I^- efflux were measured from stably transfected NIH/3T3 cells expressing wt- and ΔF508-CFTR (NIH/33-CFTR and NIH/3T3-ΔF508 cells, respectively). […] To increase ΔF508-CFTR channel activity, NIH/3T3-ΔF508 cells were cultured at 27° C. for 3 days [Denning et al., 1992].

tyrosine kinases = settings: cited from earlier work
topoisomerases = settings: cited from earlier work
wt-CFTR [1] = molecular target: T1, wt-CFTR (Homo sapiens, UniProt P13569); assay: cell-based; type: cell-based; design: expressed in transfected cells
Procedure: as §1, §2, §3
To investigate effects of genistein on CFTR activity, the rates of I^- efflux were measured from stably transfected NIH/3T3 cells expressing wt- and ΔF508-CFTR (NIH/33-CFTR and NIH/3T3-ΔF508 cells, respectively).

wt-CFTR [2] = molecular target: T1, wt-CFTR; type: cell-based; design: expressed in transfected cells; settings: 50 μM genistein on forskolin; HEK293; n=10
From the text: Transient expression of wt-CFTR in HEK293 cells: The pRBG4 vector containing wt-CFTR cDNA is a generous gift from Drs. Kevin Gunderson and Ron Kopito of Stanford University. HEK293 cells were transfected with the calcium phosphate method as described previously [Gunderson et al., 1994].
Downward deflections represent channel opening.

wt-CFTR [3] = molecular target: T1, wt-CFTR; design: expressed in transfected cells; host or cells: pooled: Calu-3 (endogenous, n=2); settings: cited from earlier work

Sequence of ΔF508-CFTR (P13569 with tags, fused parts or gaps DEL508-508): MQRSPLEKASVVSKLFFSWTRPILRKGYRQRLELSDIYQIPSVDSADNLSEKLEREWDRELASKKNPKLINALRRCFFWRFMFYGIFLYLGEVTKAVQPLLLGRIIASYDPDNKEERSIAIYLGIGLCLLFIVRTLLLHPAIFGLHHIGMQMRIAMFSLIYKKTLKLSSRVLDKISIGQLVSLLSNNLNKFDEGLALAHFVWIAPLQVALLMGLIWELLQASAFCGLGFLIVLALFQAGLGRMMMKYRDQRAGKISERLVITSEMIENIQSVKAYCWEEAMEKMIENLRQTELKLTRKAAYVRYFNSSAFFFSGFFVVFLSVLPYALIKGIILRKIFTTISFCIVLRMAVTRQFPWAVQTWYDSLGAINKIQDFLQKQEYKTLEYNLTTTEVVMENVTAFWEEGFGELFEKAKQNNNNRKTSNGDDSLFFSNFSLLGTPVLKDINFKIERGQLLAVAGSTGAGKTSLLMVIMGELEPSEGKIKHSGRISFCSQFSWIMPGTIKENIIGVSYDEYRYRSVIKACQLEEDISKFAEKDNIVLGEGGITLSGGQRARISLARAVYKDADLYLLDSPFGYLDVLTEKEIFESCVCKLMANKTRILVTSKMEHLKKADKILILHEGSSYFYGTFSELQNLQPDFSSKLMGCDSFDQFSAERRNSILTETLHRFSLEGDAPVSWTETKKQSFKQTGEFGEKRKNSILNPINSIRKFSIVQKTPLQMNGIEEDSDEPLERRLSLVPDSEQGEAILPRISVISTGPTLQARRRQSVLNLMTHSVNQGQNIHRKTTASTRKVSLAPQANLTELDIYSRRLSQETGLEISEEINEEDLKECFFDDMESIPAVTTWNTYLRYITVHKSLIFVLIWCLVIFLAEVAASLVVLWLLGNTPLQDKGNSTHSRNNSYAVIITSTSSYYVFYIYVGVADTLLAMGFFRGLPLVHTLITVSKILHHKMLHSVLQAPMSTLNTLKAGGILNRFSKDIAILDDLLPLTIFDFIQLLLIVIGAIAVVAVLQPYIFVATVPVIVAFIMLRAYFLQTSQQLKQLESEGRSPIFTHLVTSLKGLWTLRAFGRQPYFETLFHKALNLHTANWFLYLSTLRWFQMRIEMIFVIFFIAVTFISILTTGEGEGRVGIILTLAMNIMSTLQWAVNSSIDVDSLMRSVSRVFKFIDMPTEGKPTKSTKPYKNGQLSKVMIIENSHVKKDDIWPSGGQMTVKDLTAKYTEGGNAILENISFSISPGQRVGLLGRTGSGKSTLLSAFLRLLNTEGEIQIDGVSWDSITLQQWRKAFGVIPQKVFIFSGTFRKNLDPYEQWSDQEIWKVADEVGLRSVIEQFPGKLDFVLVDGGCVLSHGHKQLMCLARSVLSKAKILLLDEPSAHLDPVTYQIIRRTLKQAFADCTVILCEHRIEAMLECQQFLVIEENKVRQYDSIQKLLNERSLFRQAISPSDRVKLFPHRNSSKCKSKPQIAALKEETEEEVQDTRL
T1 sequence (P13569 whole entry): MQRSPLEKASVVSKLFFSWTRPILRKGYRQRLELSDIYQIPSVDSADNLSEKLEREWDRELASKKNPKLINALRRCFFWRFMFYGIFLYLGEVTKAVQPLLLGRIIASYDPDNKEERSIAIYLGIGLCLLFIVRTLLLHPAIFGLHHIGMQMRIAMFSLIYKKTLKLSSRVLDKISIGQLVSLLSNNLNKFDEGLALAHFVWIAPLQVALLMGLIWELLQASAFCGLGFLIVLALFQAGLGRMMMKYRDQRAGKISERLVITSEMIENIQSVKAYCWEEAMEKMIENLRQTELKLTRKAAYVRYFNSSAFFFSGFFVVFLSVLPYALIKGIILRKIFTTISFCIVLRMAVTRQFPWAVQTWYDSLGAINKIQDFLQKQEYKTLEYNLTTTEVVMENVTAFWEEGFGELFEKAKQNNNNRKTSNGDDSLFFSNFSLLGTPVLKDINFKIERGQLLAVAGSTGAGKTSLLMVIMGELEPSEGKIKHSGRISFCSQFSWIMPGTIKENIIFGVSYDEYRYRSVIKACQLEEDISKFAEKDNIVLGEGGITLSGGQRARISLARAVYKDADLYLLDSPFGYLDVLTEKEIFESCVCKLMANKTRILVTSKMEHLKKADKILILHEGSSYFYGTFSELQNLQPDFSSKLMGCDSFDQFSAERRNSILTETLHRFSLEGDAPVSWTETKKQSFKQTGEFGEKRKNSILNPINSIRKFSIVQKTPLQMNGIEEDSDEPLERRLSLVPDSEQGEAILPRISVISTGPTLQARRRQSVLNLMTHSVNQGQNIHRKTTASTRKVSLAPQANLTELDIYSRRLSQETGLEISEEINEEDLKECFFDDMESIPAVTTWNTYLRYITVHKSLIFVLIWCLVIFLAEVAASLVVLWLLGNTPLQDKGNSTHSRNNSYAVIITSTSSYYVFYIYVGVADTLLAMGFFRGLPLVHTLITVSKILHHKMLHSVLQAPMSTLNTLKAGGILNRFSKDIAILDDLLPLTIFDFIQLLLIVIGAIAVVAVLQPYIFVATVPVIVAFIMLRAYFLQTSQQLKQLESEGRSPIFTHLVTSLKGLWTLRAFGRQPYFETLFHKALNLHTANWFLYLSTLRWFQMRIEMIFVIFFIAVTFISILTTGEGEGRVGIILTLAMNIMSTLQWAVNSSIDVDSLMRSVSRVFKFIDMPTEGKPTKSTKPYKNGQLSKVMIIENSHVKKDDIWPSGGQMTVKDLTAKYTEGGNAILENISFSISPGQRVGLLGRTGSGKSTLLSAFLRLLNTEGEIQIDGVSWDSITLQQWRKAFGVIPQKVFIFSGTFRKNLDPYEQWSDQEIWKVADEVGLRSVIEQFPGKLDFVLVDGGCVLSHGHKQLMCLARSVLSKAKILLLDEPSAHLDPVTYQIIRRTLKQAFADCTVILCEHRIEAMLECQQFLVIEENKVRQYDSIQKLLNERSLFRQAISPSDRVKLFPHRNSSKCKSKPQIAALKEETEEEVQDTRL

Row | Compound | increase of the maximal forskolin-dependent I- efflux response by genistein (ΔF508-CFTR; 50 μM genistein, cells cultured at 27° C. for 3 days) | inhibition of tyrosine kinases (tyrosine kinases) | inhibition of topoisomerases (topoisomerases) | effect on I- efflux at high forskolin concentrations (wt-CFTR [1]; 50 μM genistein, high forskolin) | average increase in mean-current amplitude by genistein (wt-CFTR [2]) | basal wt-CFTR activity (wt-CFTR [3]) | channel activation in cells lacking basal CFTR activity (wt-CFTR [3]) | deactivation of wt-CFTR currents after removal of cAMP-dependent stimulation (wt-CFTR [3]) | potentiation of cAMP-dependent wt-CFTR activity (wt-CFTR [3]) | steady-state phosphorylation of wt-CFTR (wt-CFTR [3]) | activation of wt-CFTR chloride channels (wt-CFTR [3]; variety of cells) | EC50 (ΔF508-CFTR) | stimulation of mutant ΔF508-CFTR (ΔF508-CFTR) | maximal fold induction (ΔF508-CFTR; mouse, read-out: maximal forskolin-dependent increase in I- efflux) | EC50 (ΔF508-CFTR; read-out: K1/2 of forskolin for I- efflux in presence of genistein, with 50 μM genistein, cells cultured at 27° C. for 3 days) | activation at 10 µM (ΔF508-CFTR; read-out: increase of I- efflux) | EC50 (wt-CFTR [1]) | stimulation of normal CFTR activity (wt-CFTR [1]) | maximal fold induction at 10 µM (wt-CFTR [1]; mouse, read-out: maximal stimulation of I- efflux) | EC50 (wt-CFTR [1]; read-out: K1/2 of forskolin for I- efflux in presence of genistein, with 50 μM genistein, NIH/3T3-CFTR cells)
1 | O=c1c(-c2ccc(O)cc2)coc2cc(O)cc(O)c12 [Genistein, 4',5,7-trihydroxyisoflavone] | 3.7±0.4 fold | inhibits | inhibits | had no effect at high forskolin concentrations | 3.1±0.7 fold | stimulates basal wt-CFTR activity | does not appear to activate the channel in cells that lack a basal CFTR activity | prevents deactivation of wt-CFTR channel currents | potentiates cAMP-dependent wt-CFTR channel activity | increases the steady-state phosphorylation level of wt-CFTR | activates wt-CFTR chloride channels |  |  |  |  |  |  |  |  | 
2 | C=C[C@@]1(C)CC(=O)[C@]2(O)[C@@]3(C)[C@@H](O)CCC(C)(C)[C@@H]3[C@H](O)[C@H](OC(C)=O)[C@@]2(C)O1 [forskolin] |  |  |  |  |  |  |  |  |  |  |  | 670 ± 260 nM | had little affect on mutant ΔF508-CFTR | 1.65 ± 0.08 | 16 ± 5 nM | < 15% | 110 ± 30 nM | stimulates normal CFTR activity very well | 8.2 ± 0.4 | 50 ± 20 nM
